| SMILES | melting point |
| --- | --- |
| Cn1c(C(=O)N=[N+]=[N-])c(-c2ccccc2)c2cc([N+](=O)[O-])ccc21 | 262 to 264 °C |
| COc1ccc2c(c1)-c1c([nH]c3c1-c1cc(OC)ccc1CC3)CC2 | 206 °C |
| CCOc1ccc2c(c1)C(C)(c1ccccc1O)C(=O)N2S(=O)(=O)c1ccc(C(=O)NC(C)(C)C)cc1 (configuration not stated) | 180 °C |
| COc1cc(CCCOc2c(CC(=O)O)cccc2OC)n(Cc2ccc(Cl)cc2Cl)n1 | 111 to 112 °C |
| Cc1nnc2nc(-c3ccccc3F)cnn12 | 227 to 229 °C |
| COc1cccc(N2CCN(CC(O)COC(c3ccccc3)c3cccc4ccccc34)CC2)c1 (configuration not stated) | 84 °C |
| COCc1cccc(COC)c1SSc1c(COC)cccc1COC | 89 to 90 °C |
| CCOC(=O)C1=C(C)NC(c2csc(C)n2)=NC1c1ccc(F)cc1Cl (configuration not stated) | 123 to 125 °C |
| Cc1ccccc1N(C(=O)Nc1cc(C)c(S(=O)(=O)C[N+](=O)[O-])c(C)c1)C(C)C | 177 to 178 °C |
| CCOC(=O)C1=C(C(=O)OCC)C(c2cccc([N+](=O)[O-])c2)C(C(=O)OCC)=C(C(=O)OCC)N1 | 121 to 124 °C |
| CN(CCc1ccc(Nc2ncc3c(n2)-c2ccccc2C(c2ccc(Cl)c(Cl)c2)C3)cc1)C1CCCCC1 (configuration not stated) | 130 to 131 °C |
| COC(=O)c1cnc(N)cn1 | 229 to 231 °C |
| COc1ccc(S(=O)(=O)C(C)(Cc2ccc(-c3ccccc3)cc2)C(=O)O)cc1 (configuration not stated) | 161 °C |
| COc1cc(C(=O)N(C(C)C)C2CCCCC2)ccc1Cn1c(-c2ccccc2Cl)nc2ncccc21 | 121 to 123 °C |
| N#CC(C#N)C(c1cccc2ccccc12)c1cccc2ccccc12 | 179 to 181 °C |
| O=C(O)CCCn1c(=O)c2ccccc2n(CCCCN2CCC(OC(c3ccccc3)c3ccccc3)CC2)c1=O | 132 to 133 °C |
| CC(C)NC(=O)c1c(OS(C)(=O)=O)cccc1C(=O)O | 56 to 59 °C |
| COCCc1c[nH]c(=O)[nH]c1=O | 232 to 234 °C |
| Nc1sc(/C=C/CC2CCCCC2)c(CN(C2CCCCC2)C2CCCCC2)c1C(=O)c1ccc(Cl)cc1 | 147 to 150 °C |
| COC(=O)c1cc(F)c([N+](=O)[O-])cc1NC(C)=O | 124 to 126 °C |
| Cc1cccc(NC(=O)NCC(=O)N2[C@@H](c3ccccc3)CC[C@H]2c2ccccc2)c1 | 168 °C |
| COC(=O)c1ccc2[nH]cc(C(C)=O)c2c1 | 235 to 236 °C |
| CC1=C([N+](=O)[O-])C(c2ccccc2C(F)(F)F)c2c[nH]nc2N1 (configuration not stated) | 257 to 258 °C |
| COc1cncc(OC)c1C(=O)Nc1ccc(C[C@H](NC(=O)Nc2ccccc2S(=O)(=O)c2ccccc2)C(=O)O)cc1 | 196 °C |
| CN(C)C1CN(c2cc3c(cc2F)c(=O)c(C(=O)O)cn3C2CC2)C1 | 255 to 261 °C |

| SMILES | melting point |
| --- | --- |
| CC(C)c1cc(-c2ccc3c(c2)OCO3)nc2[nH]nc(N)c12 | 184 to 186 °C |
| O=C(OC(c1ccccc1)c1ccccc1)[C@H](O)CCc1ccccc1 | 82 to 84 °C |
| COc1ccc(C(=O)Nc2c(Cl)cncc2Cl)c2c1OCC2CC(=O)OCc1ccccc1 (configuration not stated) | 198 to 205 °C |
| Nc1ncc(C#Cc2ccc(Cl)cc2)c(N[C@H]2CC[C@H](O)CC2)n1 | 215 to 218 °C |
| O=S1CCN(c2nc(Cl)nc3c(Cl)ncnc23)CC1 | 195 to 198 °C |
| CC1=C(c2ccccc2)C(=O)N(C(C)(C)c2cc(Cl)c(F)c(Cl)c2)CC1 | 154 to 159 °C |
| COc1ccc2c(C)c3n(c2c1)CCCC3NC=O (configuration not stated) | 181 to 182 °C |
| COc1ccc(CN2C=CC=C3C2=Nc2cc(C(F)(F)F)ccc2S(=O)(=O)N3C)cc1 | 142 to 143 °C |
| COC(=O)c1ccc(OCC(C)NCC(O)c2cccc(Cl)c2)c(C(=O)OC)c1 (configuration not stated) | 112 °C |
| O=C(O)C1(C(=O)Nc2ccc(F)cc2F)CC1 | 160 to 163 °C |
| COc1ccc(-c2csc(Nc3cc4ccccc4cn3)n2)cc1 | 224 to 228 °C |
| COC(=O)CCC#Cc1cc(Cl)ccc1NS(=O)(=O)c1ccc(-c2ccccc2)cc1 | 93 °C |
| O=c1c(CCO)cnc2c3ccccc3ccn12 | 185 to 187 °C |
| COc1cc(C)nc(-n2ccnc2)n1 | 53 to 54 °C |
| C[Si](C)(C)C#Cc1ccc(C(=O)OCc2ccccc2)cc1OCc1ccccc1 | 110 to 112 °C |
| O=C(c1ccc(F)cc1)c1ccc2n1CCC2C(=O)O (configuration not stated) | 165 °C |
| CC(C)c1cccc(Nc2nc(Cl)nc(NCc3ccccn3)n2)c1 | 130 to 132 °C |
| CN(C)C(=O)c1sc(C(c2ccc(Cl)cc2)c2c(Cl)cc(-n3ncc(=O)[nH]c3=O)cc2Cl)nc1-c1ccccc1 (configuration not stated) | 150 °C |
| CNC(=O)c1ccc(Nc2nc(Nc3cc4c(cc3OC)CCN(CC(=O)N(C)C)CC4)ncc2Cl)c(OC)c1 | 138 to 147 °C |
| COc1c(Cl)ccc(-c2cc(N)c(Cl)c(C(=O)NOCc3nnsc3Cl)n2)c1F | 179 to 181 °C |
| CC(C)(C)c1cc(CCc2ccccc2NC(=O)N2CCN(Cc3ccc4c(c3)OCO4)CC2)cc(C(C)(C)C)c1O | 149 to 151 °C |
| Cc1c(C)c(S(=O)(=O)C[N+](=O)[O-])c(C)c2c1OC(C)(C)CC2 | 98 to 100 °C |
| CCOc1ccc(C=Cc2ccc(OC(F)F)cc2)cc1 | 177 °C |
| Cn1cc2c(=O)n(-c3ccc(Cl)cc3)nc-2c2ccccc21 | 322 to 323 °C |
| CC(C)Cc1nc2sc3c(NCCN4CCOCC4)ncnc3c2c2c1CCC(C)(C)C2 | 190 °C |

| SMILES | melting point |
| --- | --- |
| COc1ccc(C2=CCC(C#N)CC2)c2c1OCCO2 (configuration not stated) | 79 °C |
| CCCCC1NC(C(=O)O)CS1 (mixture of isomers) | 195 °C |
| CCOC(=O)C1=C(C)NC(CN(C)C)=C(C(=O)OCC)C1c1ccccc1/C=C/C(=O)OC(C)(C)C (configuration not stated) | 146 to 148 °C |
| COc1ccc(-c2cc(C(F)(F)F)nn2-c2ccc(S(N)(=O)=O)cc2)cc1I | 220 to 224 °C |
| CCCNC(=O)C1(CCCc2ccccc2N2Cc3ccccc3C2=O)c2ccccc2-c2ccccc21 | 122 to 125 °C |
| CCN(CC)c1ccc([N+](=O)[O-])c(C(=O)NCC2CCN(C(c3ccccc3)c3ccccc3)CC2)c1 | 167 to 168 °C |
| CC(=O)c1ccc(-c2ccc(F)cc2F)cc1 | 82.5 to 83.5 °C |
| COCCc1nc2c(N)nc3cc(-c4cncc(CO)c4)ccc3c2n1CC(C)(C)O | 210 to 211 °C |
| O=C1OC(O)c2c1cccc2[N+](=O)[O-] (configuration not stated) | 153 to 156 °C |
| Nc1ccc(-c2cnc3[nH]c(=O)n(CC4CCOCC4)c3n2)cn1 | > 260 °C |
| CC(=O)OCC(C)(C)CS(N)(=O)=O | 106 to 109 °C |
| COC(=O)CCc1ccc(N2CCCN(c3ccc(C#N)cc3)C2=O)cc1 | 149 to 152 °C |
| COc1ccc(CCNCC(O)c2ccc(C)cc2)cc1OC (configuration not stated) | 99 to 100 °C |
| Nc1ccc(Cl)cc1C(=O)c1c(F)cccc1F | 103 to 105 °C |
| CONC(=O)C(Cc1ccccc1)N(C)C(=O)C1CCCCC1C(=O)O (configuration not stated) | 168 to 171 °C |
| C[C@@H]1S[C@@H](C(=O)Nc2ccc(CN3C(=O)CCCC3=O)cc2)Cc2cc3c(cc2C1=O)OCO3 | 205 to 208 °C |
| CCOC(=O)c1c(O)ncnc1CC | 84.5 to 86 °C |
| N#Cc1cc(-c2cccnc2)nn1-c1ccc(NC(=O)c2ccc(OCCCC3OCCO3)nc2)cc1 | 197 to 198 °C |
| O=C(Nc1ccc(Cl)c(Cl)c1)c1cc(C(F)(F)F)cc([N+](=O)[O-])c1Cl | 202 °C |
| COC(CNC(=O)N(N=Cc1ccccc1)c1cc(Cl)c(C(C#N)c2ccc(Cl)cc2)c(Cl)c1)OC (configuration not stated) | 190 to 191 °C |
| OCc1cn(-c2ccc(C(F)(F)F)cn2)nc1C1CCCCC1 | 138 to 139 °C |
| O=C1C(O)=C([N+](=O)[O-])C(=O)c2ccc(Br)cc21 | 172 °C |
| O=[N+]([O-])c1ccc(Cc2nnco2)cc1 | 104 to 105 °C |
| CN1C(=O)Cc2cc(C(=O)[C@H]3CC[C@H]3C(=O)O)ccc21 (relative stereo) | 210 to 212 °C |
| Cc1ccc(OC(=O)N=C2NC(c3ccc(C)cc3)=NC2(C(F)(F)F)C(F)(F)F)cc1 | 161 to 163 °C |

| SMILES | melting point |
| --- | --- |
| Cn1c(=O)c(S(C)=O)c(O)c2ccccc21 (configuration not stated) | 197 to 200 °C |
| O=C(CC1CC2CCC1C2)NCC1CCN(c2ncccn2)CC1 (configuration not stated) | 121 to 126 °C |
| CCCNC(Nc1cc(C(F)(F)F)cc(C(F)(F)F)c1)=C(C#N)S(=O)(=O)c1ccc(Cl)cc1 | 196 to 198 °C |
| Cc1cc(C)cc(-c2nc(NC(=O)c3cccnc3)sc2-c2ccncc2)c1 | 267 to 270 °C |
| CC(C)NC(=O)Nc1ccc([N+](=O)[O-])cc1O | 160 to 161 °C |
| O=C(O)CCC(O)c1ccc(-c2ccccc2)cc1 (configuration not stated) | 139 to 140 °C |
| COC(=O)C=Cc1ccc(-c2ccc(OC(F)(F)F)cc2)cc1 | 98 to 100 °C |
| OCc1ccnc(OCc2cn3c(Cl)cccc3n2)c1 | 143 to 144 °C |
| CCCC(N)CC(=O)O (configuration not stated) | 203 °C |
| O=C1Nc2cccnc2N(CC#CCN2CCOCC2)c2ccccc21 | 168 °C |
| COC(=O)c1ccc(NC(=N)Nc2nc(-c3ccccc3)cs2)cc1 | 189 to 191 °C |
| Cc1ccc(C2OCCn3ccc(=O)c(O)c32)cc1 (configuration not stated) | 210 to 218 °C |
| COc1ccc(C(O)CN2CC=C(C3=NNC(=O)CS3)CC2)cc1 (configuration not stated) | 197 to 198 °C |
| CC1Cc2ccc(Br)cc2C(c2ccc(N)cc2)=NN1C(=O)C(F)(F)F (configuration not stated) | 93 to 96 °C |
| O=C(NC(=O)c1c(F)cccc1F)Nc1cc(Cl)c(OC(F)(F)C(F)Cl)c(Cl)c1 (configuration not stated) | 178 to 180 °C |
| CCOC(=O)C1=Cc2cccc(C(F)(F)F)c2OCC1 | 57 to 59 °C |
| CS(=O)(=O)Nc1cc2occc(=O)c2cc1Oc1ccccc1C(=O)O | 243 to 246 °C |
| COC(=O)Nc1nc(C)c(-c2nc3ccccc3c(=O)n2-c2ccc(Cl)cc2)s1 | > 275 °C |
| Cc1c(CO)c(CO)c2n1Cc1c(c3ccccc3n1C)C2 | 200 to 201 °C |
| COCC(=O)Nc1ccc(-c2ccncc2)cc1 | 177 to 178 °C |
| CCCCc1cc(C(=O)O)c(=O)n(CCCC)c1C | 106 to 108 °C |
| C[C@H]1c2cc(F)ccc2-c2ccc(F)cc2N1S(=O)(=O)c1cccc(O)c1 | 181 to 182 °C |
